In US12723050B2, “Crystal form of compound and use thereof” (TENNOR THERAPEUTICS (SUZHOU) LIMITED, priority 2023, dated 2026):
Values belong to the compound of their own block, whether it stands above or below them.

What was measured:
Type in all cases: physicochemical
[1] = Hygroscopicity test (dynamic vapor sorption, DVS), with XRPD before and after; settings: for moisture uptake (DVS): 25° C./80% RH
Protocol: (§1) DVS profiles were acquired on SMS (Surface Measurement Systems) DVS Intrinsic and DVS Intrinsic plus. The relative humidity at 25° C. was calibrated using the deliquescence points of LiCl, Mg(NO3)2, and KCl.

[2] = Solid stability evaluation (XRPD and HPLC) of samples left to stand open; settings: for HPLC peak 6, RRT 1.00 (main peak): in %
Protocol: The crystal form A was left to stand open at 60° C. for 24 hours, and at 25° C./60% RH and 40° C./75% RH for 1 week. The physical and chemical stability of the samples was detected by XRPD and HPLC. The stability evaluation results are summarized in Table 4, the XRPD results are shown in FIG. 12, and the HPLC results are shown in Table 5 and FIG. 13.

[3] = Crystal form stability on drying or heating (XRPD)
Protocol: 40.05 g of the crude compound of formula (I) was weighed and mixed with ethanol of 5 folds by mass, and the mixture was stirred at 25° C. for 30 minutes. At this point, a visible solid precipitate was observed. The mixture was stirred for another 2-3 hours, followed by filtration. The wet cake was washed with 80 mL of ethanol. Three solvate crystal forms, C1, C2, and C3, with different structures were detected in the undried wet product of the compound of formula (I) formed in ethanol. Their XRPD results are shown in FIGS. 9A-9C, Table 2-1, Table 2-2, and Table 2-3.
Furthermore, the sample had 3 endothermic peaks at 85.6° C., 130.7° C., and 144.3° C. (peak temperatures). […] To further investigate the substantial TGA weight loss of the crystal form B sample, a heating experiment was performed on it. […] Due to the crystal form conversion upon sample heating, combined with the substantial TGA weight loss and the solvent residue indicated by the nuclear magnetic resonance results after heating, it can be inferred that crystal form B is a toluene solvate.
as §1

[4] = open, 60° C. 24 hours, 25° C./60% RH and 40° C./75% RH 1 week

moisture uptake (DVS) [1]: 5.941%
Compound: CO[C@H]1/C=C/O[C@@]2(C)Oc3c(C)c(O)c4c(c3C2=O)C2=NC3(CCN(CCn5c([N+](=O)[O-])cnc5C)CC3)NC2=C(NC(=O)/C(C)=C\C=C\[C@H](C)[C@H](O)[C@@H](C)[C@@H](O)[C@@H](C)[C@H](OC(C)=O)[C@@H]1C)C4=O [amorphous form]

HPLC impurity peak 1, RRT 0.81 ([2]; 25° C./60% RH/Open/1 week): 0.18 | HPLC impurity peak 2, RRT 0.83 ([2]; 25° C./60% RH/Open/1 week): 0.06 | HPLC impurity peak 3, RRT 0.87 ([2]; 25° C./60% RH/Open/1 week): 0.05 | HPLC impurity peak 4, RRT 0.91 ([2]; 25° C./60% RH/Open/1 week): 0.06 | HPLC impurity peak 5, RRT 0.97 ([2]; 25° C./60% RH/Open/1 week): 0.19 | HPLC peak 6, RRT 1.00 (main peak) ([2]; 25° C./60% RH/Open/1 week): 99.45 | Change in crystal form ([2]; 25° C./60° C. RH, 1 week, open): No | HPLC purity ([2]; 25° C./60° C. RH, 1 week, open): 99.45 area % | Change in crystal form ([2]; 40° C./75% RH, 1 week, open): No | HPLC purity ([2]; 40° C./75% RH, 1 week, open): 99.29 area % | HPLC impurity peak 1, RRT 0.81 ([2]; 40° C./75% RH/Open/1 week): 0.38 | HPLC impurity peak 2, RRT 0.83 ([2]; 40° C./75% RH/Open/1 week): 0.06 | HPLC impurity peak 3, RRT 0.87 ([2]; 40° C./75% RH/Open/1 week): 0.05 | HPLC impurity peak 4, RRT 0.91 ([2]; 40° C./75% RH/Open/1 week): 0.06 | HPLC impurity peak 5, RRT 0.97 ([2]; 40° C./75% RH/Open/1 week): 0.16 | HPLC peak 6, RRT 1.00 (main peak) ([2]; 40° C./75% RH/Open/1 week): 99.29 | Change in crystal form ([2]; 60° C., 24 hours, open): No | HPLC purity ([2]; 60° C., 24 hours, open): 99.33 area % | HPLC impurity peak 1, RRT 0.81 ([2]; 60° C./open/24 hours): 0.30 | HPLC impurity peak 2, RRT 0.83 ([2]; 60° C./open/24 hours): 0.07 | HPLC impurity peak 3, RRT 0.87 ([2]; 60° C./open/24 hours): 0.06 | HPLC impurity peak 4, RRT 0.91 ([2]; 60° C./open/24 hours): 0.07 | HPLC impurity peak 5, RRT 0.97 ([2]; 60° C./open/24 hours): 0.17 | HPLC peak 6, RRT 1.00 (main peak) ([2]; 60° C./open/24 hours): 99.33 | HPLC impurity peak 1, RRT 0.81 ([2]; Starting sample): 0.29 | HPLC impurity peak 2, RRT 0.83 ([2]; Starting sample): 0.07 | HPLC impurity peak 3, RRT 0.87 ([2]; Starting sample): 0.08 | HPLC impurity peak 4, RRT 0.91 ([2]; Starting sample): 0.07 | HPLC impurity peak 5, RRT 0.97 ([2]; Starting sample): 0.17 | HPLC purity ([2]; Starting sample): 99.32 area % | HPLC peak 6, RRT 1.00 (main peak) ([2]; Starting sample): 99.32 | change in purity (HPLC) [2, 4]: no significant change in purity | crystal form conversion (XRPD) [2, 4]: no crystal form conversion | moisture uptake (DVS) [1]: 2.880% | crystal form conversion, XRPD before and after the DVS test ([1]; before and after DVS test): no crystal form conversion | stability of the crystal form ([1]; judged from XRPD before and after DVS test): good stability
Compound: CO[C@H]1/C=C/O[C@@]2(C)Oc3c(C)c(O)c4c(c3C2=O)C2=NC3(CCN(CCn5c([N+](=O)[O-])cnc5C)CC3)NC2=C(NC(=O)/C(C)=C\C=C\[C@H](C)[C@H](O)[C@@H](C)[C@@H](O)[C@@H](C)[C@H](OC(C)=O)[C@@H]1C)C4=O [crystal form A]

crystal form stability ([3]; after heating or drying, all converted to crystal form A): poor crystal form stability | crystal form after air-drying (XRPD) ([3]; air-drying at room temperature for 24 hours): remained unchanged | crystal form after heating (XRPD) ([3]; heating to 115° C. and cooling to room temperature): remained unchanged | crystal form after heating (XRPD) ([3]; heating to 140° C. and cooling to room temperature): converted to crystal form A
Compound: CO[C@H]1/C=C/O[C@@]2(C)Oc3c(C)c(O)c4c(c3C2=O)C2=NC3(CCN(CCn5c([N+](=O)[O-])cnc5C)CC3)NC2=C(NC(=O)/C(C)=C\C=C\[C@H](C)[C@H](O)[C@@H](C)[C@@H](O)[C@@H](C)[C@H](OC(C)=O)[C@@H]1C)C4=O [crystal form B]

crystal form after drying (XRPD) ([3]; wet product from ethanol, after drying): converted to crystal form A
Compound: CO[C@H]1/C=C/O[C@@]2(C)Oc3c(C)c(O)c4c(c3C2=O)C2=NC3(CCN(CCn5c([N+](=O)[O-])cnc5C)CC3)NC2=C(NC(=O)/C(C)=C\C=C\[C@H](C)[C@H](O)[C@@H](C)[C@@H](O)[C@@H](C)[C@H](OC(C)=O)[C@@H]1C)C4=O [crystal form C1]
